# How the values were obtained:
# [1] = molecular target: T1, Human recombinant His-tagged PFKFB3 (Homo sapiens, UniProt Q16875); assay: PFKFB3 IC50 determination assay (in vitro kinase assay, modified ADP-Glo system); format: biochemical; details: ADP-Glo; ATP 20 μM (Km), fructose-6-phosphate 2 μM (Km), 25 nM PFKFB3, 2 h, rt; read-out: PFKFB3 IC50
# T1 construct: His; made in house
# [2] = molecular target: T2, BRK (PTK6 protein tyrosine kinase 6) (Homo sapiens, UniProt Q13882); assay: BRK (PTK6 protein tyrosine kinase 6) IC50 determination assay (in vitro kinase assay, ADP-Glo Max); format: biochemical; details: ATP 1600 uM (Km), Poly(Glu, Tyr) 160 uM, 75 nM PTK6, 45 min, RT
# T2 construct: purchased Carna Bioscience 08-165
# Procedure: BRK (PTK6 Protein Tyrosine Kinase 6) IC50 Determination Assay
# In vitro kinase assay used to determine IC50 values for tested inhibitors is based on a modified ADP-Glo™ Max Assay system (Promega) and consists of two parts:
# 1. Kinase reaction—performed in optimized conditions. At this step BRK phosphorylates its substrate Poly(Glu, Tyr) sodium salt [Glu:Tyr (4:1)] using ATP as a source of phosphate to produce phosphorylated substrate and ADP. Reaction is performed at Km values for ATP and substrate using optimized buffer composition and time of the reaction. BRK (PTK6 protein tyrosine kinase 6) used in the experiments is commercially available (Carna Bioscience, cat. No. 08-165).
# 2. Detection of ADP as a product of the reaction using ADP-Glo™ system. This part is conducted by using the commercially available kit ADP-Glo™ Max Assay (Promega, cat. No. V7001) according to manufacturer's instruction. Reproducibility and reliability of this modification is confirmed in an optimization process.
# Test compounds are dissolved in DMSO and then transferred to the V-bottom 96-well plate.
# Two mixes are prepared on ice: Mix 1—containing appropriate kinase amount in 2× reaction buffer and Mix 2—containing concentrated substrate (Poly(Glu, Tyr) sodium salt) and ATP in MilliQ water. 15 μL per well of Mix 1 is transferred to assay wells of 96-well white plate. Next, 2 μl of 15× concentrated test compound in DMSO is added to Mix 1 for 20 min pre-incubation, followed by addition of Mix 2 (13 μl/well). Total reaction volume is 30 μL per well. Samples are tested in duplicates. Final concentration of DMSO in the reaction is 6.7%. Conditions needed for performing BRK in vitro kinase assay are given below:
# This protocol is based on Technical Bulletin, ADP-Glo™ Kinase Assay (Promega) and is adapted to 96-well plate containing 30 μL reaction mixture. 30 μL of ADP-Glo™ Reagent is added to each well of 96-well plate containing 30 μL of reaction mixture. The plate is incubated for 90 minutes on a shaker at RT. 60 μL of ADP-Glo™ Max Detection Solution is added to each well of 96-well plate containing 60 μL of the solution (ratio of kinase reaction volume to ADP-Glo™ Reagent volume to Kinase Detection Solution volume is maintained at […]). Plate is incubated for 40 minutes on a shaker at RT, protected from light. Luminescence is measured in the plate reader Synergy 2 (BioTek). Luminescent readouts for compounds tested in 8 concentrations (routinely from 66.7 μM in 5-fold serial dilution step) in duplicates, as well as for high control (complete reaction mix w/DMSO vehicle control), are first normalized to no-substrate low control by its subtraction. In the next step, % of normalized positive control is calculated for each data point and plotted against test compound concentration:
# % of control—percent of positive control normalized to no-substrate negative control Lumcpd—luminescence of test compound Lumneg—luminescence of no-substrate negative control Lumpos—luminescence of positive control
# IC50 parameter is determined by the GraphPad Prism 6.0 software using 4-parameter model.
# T1 sequence (Q16875 whole entry): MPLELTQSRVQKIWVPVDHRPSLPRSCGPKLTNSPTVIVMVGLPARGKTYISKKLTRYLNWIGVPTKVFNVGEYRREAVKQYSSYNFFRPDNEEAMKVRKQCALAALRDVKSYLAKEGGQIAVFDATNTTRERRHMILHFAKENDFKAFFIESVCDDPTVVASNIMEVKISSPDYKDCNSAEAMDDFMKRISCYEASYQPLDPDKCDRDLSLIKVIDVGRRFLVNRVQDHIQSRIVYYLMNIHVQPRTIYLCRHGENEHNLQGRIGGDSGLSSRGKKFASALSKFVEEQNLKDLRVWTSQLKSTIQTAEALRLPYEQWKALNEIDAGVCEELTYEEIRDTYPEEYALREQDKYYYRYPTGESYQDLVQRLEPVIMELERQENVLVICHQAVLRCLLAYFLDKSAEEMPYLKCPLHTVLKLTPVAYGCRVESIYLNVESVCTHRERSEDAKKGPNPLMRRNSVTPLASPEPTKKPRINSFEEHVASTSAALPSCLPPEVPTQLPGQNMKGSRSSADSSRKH
# T2 sequence (Q13882 whole entry): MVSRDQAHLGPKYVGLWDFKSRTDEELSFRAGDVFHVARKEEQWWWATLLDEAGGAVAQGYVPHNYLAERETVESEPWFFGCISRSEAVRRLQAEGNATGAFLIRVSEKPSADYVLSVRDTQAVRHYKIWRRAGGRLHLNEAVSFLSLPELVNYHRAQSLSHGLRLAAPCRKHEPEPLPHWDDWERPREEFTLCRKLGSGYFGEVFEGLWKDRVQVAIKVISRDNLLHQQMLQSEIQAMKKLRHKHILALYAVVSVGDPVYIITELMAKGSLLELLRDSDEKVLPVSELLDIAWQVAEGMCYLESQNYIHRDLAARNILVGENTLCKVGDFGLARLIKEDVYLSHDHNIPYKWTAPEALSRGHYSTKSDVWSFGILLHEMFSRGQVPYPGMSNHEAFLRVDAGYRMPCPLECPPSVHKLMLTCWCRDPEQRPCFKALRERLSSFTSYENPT
Compound,IC50 [1] [µM],IC50 [2] [µM]
CN1CC(Nc2cc(-c3ccc4ccn(C)c4c3)c3nccnc3c2)CCC1=O (centres unmarked) [Example 133],1 to 10,0.001 to 1
Cn1ccc2ccc(-c3cc(NCc4cnc(N)nc4)cc4nccnc34)cc21 [Example 121],1 to 10,0.001 to 1
"Cn1cc(-c2cncc(CNc3cc(-c4ccc5ccn(C)c5c4)c4nccnc4c3)c2)cn1 [Example 69, 8-(1-Methyl-1H-indol-6-yl)-N-{[5-(1-methyl-1H-pyrazol-4-yl)pyridin-3-yl]methyl}quinoxalin-6-amine]",0.001 to 1,0.001 to 1
"Cn1ccc2ccc(-c3cc(NCCc4cccnc4)cc4nccnc34)cc21 [compound 3, 8-(1-methyl-1H-indol-6-yl)-N-[2-(pyridin-3-yl)ethyl]quinoxalin-6-amine]",1 to 10,0.001 to 1
Cc1coc2ccc(-c3cc(NCc4cncc(-c5cnn(C)c5)c4)cc4nccnc34)cc12 [Example 122],0.001 to 1,1 to 10
"Cn1ccc2ccc(-c3cc(NC4CCCc5ncccc54)cc4nccnc34)cc21 (centres unmarked) [compound 19, 8-(1-methyl-1H-indol-6-yl)-N-(5,6,7,8-tetrahydroquinolin-5-yl)quinoxalin-6-amine]",0.001 to 1,0.001 to 1
"Cn1ccc2ccc(-c3cc(NCC4CCCNC4)cc4nccnc34)cc21 (centres unmarked) [compound 57, 8-(1-methyl-1H-indol-6-yl)-N-(piperidin-3-ylmethyl)quinoxalin-6-amine]",1 to 10,0.001 to 1
"CC(Nc1cc(Cl)c2nccnc2c1)c1cccnc1 (centres unmarked) [compound 26, 8-chloro-N-[1-(pyridin-3-yl)ethyl]quinoxalin-6-amine]",10 to 100,1 to 10
Cn1nncc1CNc1cc(-c2ccc3ccn(C)c3c2)c2nccnc2c1 [Example 243],0.001 to 1,0.001 to 1
CC(Nc1cc(-c2ccc3ccn(C)c3c2)c2nccnc2c1)c1cccc(S(N)(=O)=O)c1 (centres unmarked) [Example 28],1 to 10,0.001 to 1
"Cn1ccc2ccc(-c3cc(NCC4CCCOC4)cc4nccnc34)cc21 (centres unmarked) [compound 23, 8-(1-methyl-1H-indol-6-yl)-N-(oxan-3-ylmethyl)quinoxalin-6-amine]",0.001 to 1,0.001 to 1
Cn1ccc2ccc(-c3cc(NCc4ccc5nccn5c4)cc4nccnc34)cc21 [Example 128],1 to 10,0.001 to 1
Cn1ccc2ccc(-c3cc(NC(c4cccnc4)C4CCOCC4)cc4nccnc34)cc21 (centres unmarked) [Example 115],0.001 to 1,1 to 10
Cn1ccc2ccc(-c3cc(NC4CCNCC4)cc4nccnc34)cc21 [Example 97],1 to 10,1 to 10
Cn1ccc2ccc(-c3cc(NC(=CC(=O)O)c4cccnc4)cc4nccnc34)cc21 [Example 62],10 to 100,1 to 10
"Cn1ccc2ccc(-c3cc(NC4CCOC(C)(C)C4)cc4nccnc34)cc21 (centres unmarked) [compound 22, N-(2,2-dimethyloxan-4-yl)-8-(1-methyl-1H-indol-6-yl)quinoxalin-6-amine]",0.001 to 1,0.001 to 1
Cn1ccc2ccc(-c3cc(NC(C)(C)c4cccnc4)cc4nccnc34)cc21 [Example 81],0.001 to 1,10 to 100
CC(Nc1cc(N2CC3CCCC3C2)c2nccnc2c1)c1cccnc1 (centres unmarked) [Example 65],10 to 100,1 to 10
"CC(Nc1cc(-c2ccc3ccn(C)c3c2)c2nccnc2c1)c1ccccn1 (centres unmarked) [compound 5, 8-(1-methyl-1H-indol-6-yl)-N-[1-(pyridin-2-yl)ethyl]quinoxalin-6-amine]",1 to 10,0.001 to 1
Cn1ccc2ccc(-c3cc(NCc4ccc(C#N)cc4)cc4nccnc34)cc21 [Example 70],1 to 10,0.001 to 1

Compound,IC50 [1] [µM],IC50 [2] [µM]
Cn1ccc2ccc(-c3cc(NCc4cncc(N)c4)cc4nccnc34)cc21 [Example 100],1 to 10,0.001 to 1
Cn1ccc2ccc(-c3cc(NCc4cncc(-c5cnc(N)nc5)c4)cc4nccnc34)cc21 [Example 73],1 to 10,0.001 to 1
Cn1ccc2ccc(-c3cc(NCc4ccc(N)cc4)cc4nccnc34)cc21 [Example 75],10 to 100,1 to 10
Cn1ccc2ccc(-c3cc(NCc4cccc(C#N)c4)cc4nccnc34)cc21 [Example 71],1 to 10,0.001 to 1
"Cn1ccc2ccc(-c3cc(NC4CCOc5ccccc54)cc4nccnc34)cc21 (centres unmarked) [compound 14, N-(3,4-dihydro-2H-1-benzopyran-4-yl)-8-(1-methyl-1H-indol-6-yl)quinoxalin-6-amine]",0.001 to 1,1 to 10
Cc1cnc2c(-c3ccc4ccn(C)c4c3)cc(NC(C)c3cccnc3)cc2n1 (centres unmarked) [Example 34],0.001 to 1,10 to 100
Cn1ccc2ccc(-c3cc(NC4CCOc5cccnc54)cc4nccnc34)cc21 (centres unmarked) [Example 119],0.001 to 1,0.001 to 1
CC(=O)N1CCCC(C(Nc2cc(-c3ccc4ccn(C)c4c3)c3nccnc3c2)c2cccnc2)C1 (centres unmarked) [Example 250],0.001 to 1,0.001 to 1
"COc1ccc(C(C)Nc2cc(-c3ccc4ccn(C)c4c3)c3nccnc3c2)cc1 (centres unmarked) [compound 15, N-[1-(4-methoxyphenyl)ethyl]-8-(1-methyl-1H-indol-6-yl)quinoxalin-6-amine]",1 to 10,1 to 10
CC(=O)N1CCCCC1CNc1cc(-c2ccc3c(ccn3C)c2)c2nccnc2c1 (centres unmarked) [Example 120],10 to 100,1 to 10
"Cn1cnc2ccc(-c3cc(N[C@@H]4CCCc5ccccc54)cc4nccnc34)cc21 [compound 8, 8-(1-methyl-1H-1,3-benzodiazol-6-yl)-N-[(1R)-1,2,3,4-tetrahydronaphthalen-1-yl]quinoxalin-6-amine]",1 to 10,10 to 100
"CC(Nc1cc(-c2ccc3ccn(C)c3c2)c2nccnc2c1)c1ccncc1 (centres unmarked) [compound 4, 8-(1-methyl-1H-indol-6-yl)-N-[1-(pyridin-4-yl)ethyl]quinoxalin-6-amine]",0.001 to 1,0.001 to 1
"COc1ccc(-c2cc(N[C@@H]3CCCc4ccccc43)cc3nccnc23)cc1[N+](=O)[O-] [compound 25, 8-(4-methoxy-3-nitrophenyl)-N-[(1R)-1,2,3,4-tetrahydronaphthalen-1-yl]quinoxalin-6-amine]",1 to 10,10 to 100
"COc1cc(-c2cc(N[C@@H]3CCCc4ccccc43)cc3nccnc23)ccc1N [compound 12, 8-(4-amino-3-methoxyphenyl)-N-[(1R)-1,2,3,4-tetrahydronaphthalen-1-yl]quinoxalin-6-amine]",1 to 10,1 to 10
Cn1ccc2ccc(-c3cc(NCC4COCCN4)cc4nccnc34)cc21 (centres unmarked) [Example 131],1 to 10,0.001 to 1
"Cn1ccc2ccc(-c3cc(NCc4cccnc4)cc4nccnc34)cc21 [compound 10, 8-(1-methyl-1H-indol-6-yl)-N-(pyridin-3-ylmethyl)quinoxalin-6-amine]",0.001 to 1,0.001 to 1
Cn1ccc2ccc(-c3cc(NCc4ccc(C(N)=O)cc4)cc4nccnc34)cc21 [Example 88],1 to 10,0.001 to 1
CN1CCC(Nc2cc(-c3ccc4ccn(C)c4c3)c3nccnc3c2)CC1=O (centres unmarked) [Example 132],0.001 to 1,0.001 to 1
"Cn1ccc2ccc(-c3cc(N[C@@H]4CCCc5ccccc54)cc4nccnc34)cc21 [compound 1, 8-(1-methyl-1H-indol-6-yl)-N-[(1R)-1,2,3,4-tetrahydronaphthalen-1-yl]quinoxalin-6-amine]",0.001 to 1,1 to 10
"CC(Nc1cc(-c2ccc3ccn(C)c3c2)c2nccnc2c1)C(=O)N1CCCC1 (centres unmarked) [compound 21, 2-{[8-(1-methyl-1H-indol-6-yl)quinoxalin-6-yl]amino}-1-(pyrrolidin-1-yl)propan-1-one]",1 to 10,1 to 10
